Common to all, as to format: cell-based
The target of experiment [1] is T1, wild type BRAF (Homo sapiens, UniProt P15056). Description: Intramolecular Rluc PCA reporter F[1]-BRAF-F[2] (wild type), transiently transfected HEK293 cells. More on the design: Renilla luciferase PCA fragment F[1]; Renilla luciferase PCA fragment F[2]; expressed in transfected cells; host or cells: HEK293 (transient, pcDNA3.1). The conditions noted are these: for Effect on reporter luminescence signal: HEK293, 1 μM, 3 h treatments (FIG. 5A, 6A). On the procedure:
(§1) Cell culture and antibodies. HEK293 and SW480 cells were grown in DMEM supplemented with 10% (vol/vol) FBS. Cells were passaged three times a week to keep the cells in culture. Transient transfections were performed with Transfectin reagent (Bio-Rad, #1703350). […] The primary antibody used was anti-BRAF(F-7) (Santa Cruiz Biotechnology, #sc-5284).
(§2) Expression constructs. The Rluc PCA hybrid proteins F[1]-BRAF-F[2] and F[1]-BRAF(V600E)-F[2] have been generated using the identical cloning approach. Following PCR amplification of the human BRAF or BRAF(V600E) gene, the coding region of the BRAF protein (SEQ ID No: 2 or 5) was fused N-terminally with F[1] (SEQ ID No: 13) and C-terminally with F[2] (SEQ ID No: 17) of the Rluc PCA coding region. In addition. the sequence of two interjacent 10-aa linkers (GGGGS)2 (SEQ ID No: 18) was integrated by cloning. As vector backbone we used the pcDNA3.1 plasmid. The MEK1 expression constructs (s. SEQ ID No: 23) and the Gluc PCA based BRAF reporter (s. SEQ ID No: 24) were prepared analogously.
(§3) Renilla/Gaussia luciferase PCA experiments. Cells were grown in DMEM supplemented with 10% FBS. Indicated versions of the Rluc PCA based biosensor were transiently overexpressed in 24-well plate format. 48 hours post-transfection, the growth medium was partially removed and different compounds added with concentrations as indicated in the figure legends. To measure the dose-dependent effect of the lead molecules (candidate compounds) on the intramolecular Rluc PCA reporter, the attached cells were treated with different concentrations and for different time-frames. The time-dependent consequences of the lead compounds on kinase conformations were recorded with a final compound concentration of 1 μM. For the Rluc PCA measurements the growth medium was carefully removed and the cells were washed with PBS. Cells were resuspended in PBS and the cell suspensions were transferred to 96-well plates and subjected to luminescence analysis using the LMaxTM-II-384 luminometer (Molecular Devices). Rluc luminescence signals were integrated for 10 seconds with a delay time of 3 seconds following addition of 20 μl of the Rluc substrate benzyl-coelenterazine (5 μM; Nanolight, #301) in PBS with a concentration of 25 nM. Dose-dependent effects of drug exposure on luminescence signals originating from BRAF conformations were compared using indicated controls. Cells were collected after PCA measurements and lysed with Laemmli sample buffer to control the protein expression levels. In case of Gluc reporters, coelenterazine was used as luminescence substrate.
Target sequence in this assay (P15056 with tags, fused parts or gaps): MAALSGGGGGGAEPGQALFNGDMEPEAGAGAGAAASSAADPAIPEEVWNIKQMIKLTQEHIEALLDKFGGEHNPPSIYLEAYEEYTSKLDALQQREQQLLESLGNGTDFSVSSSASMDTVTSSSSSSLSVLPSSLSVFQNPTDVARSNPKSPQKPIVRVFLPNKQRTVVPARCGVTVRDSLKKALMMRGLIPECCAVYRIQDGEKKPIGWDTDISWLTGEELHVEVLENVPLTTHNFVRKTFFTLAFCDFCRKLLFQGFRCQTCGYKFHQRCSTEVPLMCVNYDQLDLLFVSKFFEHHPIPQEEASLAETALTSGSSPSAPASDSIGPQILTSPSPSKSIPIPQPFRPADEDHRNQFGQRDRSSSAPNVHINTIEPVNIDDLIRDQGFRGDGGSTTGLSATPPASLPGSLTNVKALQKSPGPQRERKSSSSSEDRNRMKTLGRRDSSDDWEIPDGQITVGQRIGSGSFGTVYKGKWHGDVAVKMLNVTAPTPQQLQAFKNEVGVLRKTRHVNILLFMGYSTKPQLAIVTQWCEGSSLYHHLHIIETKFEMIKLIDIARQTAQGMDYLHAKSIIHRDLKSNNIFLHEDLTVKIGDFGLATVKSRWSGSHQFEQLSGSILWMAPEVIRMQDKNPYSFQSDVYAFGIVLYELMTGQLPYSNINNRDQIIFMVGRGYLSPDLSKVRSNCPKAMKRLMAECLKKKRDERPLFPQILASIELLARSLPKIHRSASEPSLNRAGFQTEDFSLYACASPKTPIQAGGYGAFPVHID

Experiment [2] addresses T2, BRAF-V600E (Homo sapiens, UniProt P15056, V600E).
T2 construct: Renilla luciferase PCA fragment F[1]; Renilla luciferase PCA fragment F[2]; expressed in transfected cells; host or cells: HEK293 (transient, pcDNA3.1)
Description: Intramolecular Rluc PCA reporter F[1]-BRAF(V600E)-F[2], transiently transfected HEK293 cells. The conditions noted are these: HEK293, 1 μM; for Effect on reporter bioluminescence signal / conformation: BRAF V600E reporter, 3 h treatments (FIG. 5B, 6B). On the procedure:
as §1, §2
Mutagenesis. Site directed mutagenesis have been performed to generate following mutations in the reporter constructs: V600E, V600K, V600R, D594G, and G469A in BRAF and S218A and the S218E/S222E double mutation in MEK1.
as §3

In the next experiment the target is BRAF D594G (Homo sapiens, UniProt P15056, D594G). As to the kind of experiment: Intramolecular Rluc PCA mutant BRAF reporter (D594G), transiently transfected HEK293 cells. To be noted: HEK293, 1 μM, 3 h treatments (FIG. 5B). On the procedure: as §1
(§4) Expression constructs. The Rluc PCA hybrid proteins F[1]-BRAF-F[2] and F[1]-BRAF(V600E)-F[2] have been generated using the identical cloning approach. Following PCR amplification of the human BRAF or BRAF(V600E) gene, the coding region of the BRAF protein (SEQ ID No: 2 or 5) was fused N-terminally with F[1] (SEQ ID No: 13) and C-terminally with F[2] (SEQ ID No: 17) of the Rluc PCA coding region. […]
(§5) Renilla/Gaussia luciferase PCA experiments. […] The time-dependent consequences of the lead compounds on kinase conformations were recorded with a final compound concentration of 1 μM. […] Cells were resuspended in PBS and the cell suspensions were transferred to 96-well plates and subjected to luminescence analysis using the LMaxTM-II-384 luminometer (Molecular Devices). Rluc luminescence signals were integrated for 10 seconds with a delay time of 3 seconds following addition of 20 μl of the Rluc substrate benzyl-coelenterazine (5 μM; Nanolight, #301) in PBS with a concentration of 25 nM. […] In case of Gluc reporters, coelenterazine was used as luminescence substrate.

A further experiment has as its target BRAF V600K (Homo sapiens, UniProt P15056, V600K). As to the kind of experiment: Intramolecular Rluc PCA mutant BRAF reporter (V600K), transiently transfected HEK293 cells. To be noted: HEK293, 1 μM, 3 h treatments (FIG. 5B). The procedure:
as §1, §4, §5

For the next experiment, the target named is BRAF V600R (Homo sapiens, UniProt P15056, V600R). Description: Intramolecular Rluc PCA mutant BRAF reporter (V600R), transiently transfected HEK293 cells. The conditions noted are these: HEK293, 1 μM, 3 h treatments (FIG. 5B). The procedure: as §1, §4, §5
Experiment [3] has as its target T2, BRAF-V600E. As to the kind of experiment: Intramolecular Gluc PCA reporter GlucF[1]-BRAF-V600E-GlucF[2], transiently transfected HEK293 cells. To be noted: HEK293, 1 μM, 3 h treatments (FIG. 8). The procedure:
as §1, §4, §5

The target of experiment [4] is T1, wild type BRAF. Description: Intramolecular Gluc PCA reporter GlucF[1]-BRAF-GlucF[2] (wild type), transiently transfected HEK293 cells. To be noted: HEK293, 1 μM, 3 h treatments (FIG. 8). On the procedure: as §1, §4, §5
Target sequence in this assay (P15056 with tags, fused parts or gaps): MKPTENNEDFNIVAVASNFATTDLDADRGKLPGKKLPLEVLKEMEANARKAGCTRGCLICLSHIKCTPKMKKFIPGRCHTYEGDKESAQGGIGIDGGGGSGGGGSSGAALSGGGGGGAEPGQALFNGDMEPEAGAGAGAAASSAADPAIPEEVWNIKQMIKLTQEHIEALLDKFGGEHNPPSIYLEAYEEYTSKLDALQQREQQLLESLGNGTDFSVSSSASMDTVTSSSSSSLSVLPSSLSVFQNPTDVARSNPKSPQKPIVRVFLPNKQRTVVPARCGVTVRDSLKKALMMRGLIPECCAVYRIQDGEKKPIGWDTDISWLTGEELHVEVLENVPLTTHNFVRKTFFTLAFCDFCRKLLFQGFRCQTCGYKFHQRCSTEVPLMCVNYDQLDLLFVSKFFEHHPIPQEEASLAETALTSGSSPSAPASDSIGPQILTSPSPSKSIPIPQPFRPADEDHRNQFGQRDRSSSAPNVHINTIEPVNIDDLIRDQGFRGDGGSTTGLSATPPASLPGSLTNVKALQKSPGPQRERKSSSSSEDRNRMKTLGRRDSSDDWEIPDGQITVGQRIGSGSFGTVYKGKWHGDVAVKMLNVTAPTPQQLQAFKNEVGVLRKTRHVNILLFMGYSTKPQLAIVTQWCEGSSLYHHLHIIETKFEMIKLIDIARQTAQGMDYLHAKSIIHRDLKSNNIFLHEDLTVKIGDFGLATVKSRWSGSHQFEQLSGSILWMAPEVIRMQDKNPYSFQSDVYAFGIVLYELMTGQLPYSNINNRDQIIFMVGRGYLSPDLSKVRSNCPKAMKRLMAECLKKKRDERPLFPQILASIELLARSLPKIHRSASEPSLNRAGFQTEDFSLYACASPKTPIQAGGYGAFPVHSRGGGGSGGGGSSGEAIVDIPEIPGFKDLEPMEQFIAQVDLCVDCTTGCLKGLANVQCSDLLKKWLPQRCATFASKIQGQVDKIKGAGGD
The next experiment has as its target BRAF G469A (Homo sapiens, UniProt P15056, G469A). Description: Intramolecular Rluc PCA mutant BRAF reporter (G469A), transiently transfected HEK293 cells. To be noted: HEK293, 1 μM, 3 h treatments (FIG. 5B). The procedure: as §1, §4, §5

“Also recorded” adds a separate entry of the source.

T2 sequence (P15056 with tags, fused parts or gaps V600E): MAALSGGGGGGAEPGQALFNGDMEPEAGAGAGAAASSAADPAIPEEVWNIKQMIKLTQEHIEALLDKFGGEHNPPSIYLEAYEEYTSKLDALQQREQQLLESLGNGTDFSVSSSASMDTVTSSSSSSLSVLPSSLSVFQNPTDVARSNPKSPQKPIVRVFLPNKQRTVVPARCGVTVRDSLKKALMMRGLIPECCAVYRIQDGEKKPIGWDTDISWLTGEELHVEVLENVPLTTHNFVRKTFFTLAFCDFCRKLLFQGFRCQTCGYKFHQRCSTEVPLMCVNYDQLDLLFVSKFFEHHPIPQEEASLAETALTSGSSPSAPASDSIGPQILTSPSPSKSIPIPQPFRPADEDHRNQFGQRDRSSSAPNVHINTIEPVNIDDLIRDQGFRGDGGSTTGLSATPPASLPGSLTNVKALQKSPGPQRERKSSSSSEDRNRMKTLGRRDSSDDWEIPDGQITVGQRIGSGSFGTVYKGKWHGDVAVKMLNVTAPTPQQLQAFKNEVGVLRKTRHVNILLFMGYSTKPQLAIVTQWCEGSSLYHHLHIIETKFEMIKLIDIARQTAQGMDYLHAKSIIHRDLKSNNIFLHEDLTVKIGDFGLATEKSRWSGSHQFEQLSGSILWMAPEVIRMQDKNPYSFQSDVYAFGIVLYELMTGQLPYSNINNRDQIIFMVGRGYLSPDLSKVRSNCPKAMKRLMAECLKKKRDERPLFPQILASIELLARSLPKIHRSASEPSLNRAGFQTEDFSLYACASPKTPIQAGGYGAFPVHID
BRAF V600R, sequence (P15056 with tags, fused parts or gaps V600R): as the sequence (P15056 with tags, fused parts or gaps V600E) above, with E600R counted along it
BRAF G469A, sequence (P15056 with tags, fused parts or gaps G469A): as the sequence (P15056 with tags, fused parts or gaps V600E) above, with G469A, E600V counted along it
BRAF D594G, sequence (P15056 with tags, fused parts or gaps D594G): as the sequence (P15056 with tags, fused parts or gaps V600E) above, with D594G, E600V counted along it
BRAF V600K, sequence (P15056 with tags, fused parts or gaps V600K): as the sequence (P15056 with tags, fused parts or gaps V600E) above, with E600K counted along it

Take `COC(=O)N[C@@H](C)CNc1nccc(-c2cn(C(C)C)nc2-c2cc(Cl)cc(NS(C)(=O)=O)c2F)n1` [encorafenib]: the “Effect on reporter luminescence signal” value at wild type BRAF [1] is listed as “only slight changes in the luminescence signal”. Also, the “Effect on reporter bioluminescence signal / conformation” value on BRAF-V600E [2] was “shift to the closed conformation”.
Take `CC(C)(C)c1nc(-c2cccc(NS(=O)(=O)c3c(F)cccc3F)c2F)c(-c2ccnc(N)n2)s1` [dabrafenib]: the “Effect on reporter luminescence signal” value at wild type BRAF [1] is “only slight changes in the luminescence signal”. On BRAF-V600E [2], the “Effect on reporter bioluminescence signal / conformation” value is “shift to the closed conformation”.
Regarding `COc1cc(F)c(F)c(Nc2ccc(I)cc2F)c1NS(=O)(=O)C1(C[C@H](O)CO)CC1` [refametinib], the “Effect on reporter luminescence signal” value at wild type BRAF [1] is listed as “only slight changes in the luminescence signal”. The “Effect on reporter bioluminescence signal / conformation” value on BRAF-V600E [2] was “exclusively influenced by the BRAF specific inhibitors”.
For `O=C(c1c(F)ccc(NS(=O)(=O)N2CC[C@@H](F)C2)c1F)c1c[nH]c2ncc(-c3cnc(C4CC4)nc3)cc12` [PLX8394], the “Time-dependent effect on reporter conformation (Rluc PCA signal)” value at wild type BRAF [1] (HEK293, 1 μM (FIG. 4)) is listed as “not affected”; on BRAF-V600E [2] (BRAF-V600E reporter, up to 3 h (FIG. 4)), “immediate shift of the BRAF-V600E reporter to the closed conformation was observed increasing up to 3 h”. In addition, at wild type BRAF [1], the “Effect on reporter luminescence signal” value is recorded as “not susceptible; also recorded: only slight changes in the luminescence signal”. The “Effect on reporter bioluminescence signal / conformation” value on BRAF D594G, at BRAF V600K, at BRAF V600R, on BRAF-V600E [2] and on BRAF G469A was “significant shift to the closed conformation” throughout. For the same compound, the “Effect on Gluc PCA luciferase signal / conformation” value at BRAF-V600E [3] is reported as “enhanced the luciferase signal exclusively with the V600E BRAF mutant”; on wild type BRAF [4], “not affected”.
On to `N#CC(=C(/N)Sc1ccccc1N)/C(C#N)=C(\N)Sc1ccccc1N` [U0126], for which the “Effect on reporter luminescence signal” value at wild type BRAF [1] was “only slight changes in the luminescence signal”. Further, the “Effect on reporter bioluminescence signal / conformation” value at BRAF-V600E [2] is “exclusively influenced by the BRAF specific inhibitors”.

The record behind these values is US20220137060A1, “FULL LENGTH KINASE ACTIVITY-CONFORMATION REPORTER” (UNIVERSITAT INNSBRUCK, priority 2016, published 2022).
